Experimental data as given in US5016655A, “Cigarette manufacturing process” (priority 1989, dated 1991).
Read-outs that look alike come from different tables or passages of the source.

Assays:
[1] = system: F-344 rat esophagus; conditions: F-344 rat esophagus vs other tissues; cited from earlier work
[2] = system: tumor formation; conditions: nasal cavity, salivary duct, esophagus, bronchial epithelium, liver; cited from earlier work
[3] = transfer of cyclohexanol into smoke, standard smoking machine (Example 6)
Procedure: Cyclohexanol appears to meet these criteria.
Cigarettes were hand-laced with cyclohexanol, that is by evenly injecting the alcohol into the rod of a manufactured cigarette using a machine-controlled syringe. […] Sixty cigarettes were smoked on a standard smoking machine using Cambridge filter pads to collect the particulate phase, where most of the material is carried. A transfer efficiency of ten percent was established with this test cigarette. […]. The load was 620 micrograms per cigarette, and the transfer efficiency was ten percent. […].

[4] = Table V; cited from earlier work
[5] = system: rabbits; conditions: TLV documentation (1943); cited from earlier work
[6] = calculated air concentrations of cyclohexanol from cigarette smoke; conditions: nine puffs at 35 ml, 315 ml
Procedure: Therefore, 0.050 would be in 315 ml, which would be expected from nine puffs at 35 ml per puff. […] However, this exposure in contrast to the eight-hour work day assumption of the TLV is only during the actual puffing time for the smoker.

[7] = system: smoker exposure versus effect level in animals; assay: daily body burden and exposure versus effect level
[8] = system: mice; conditions: cited from earlier work
[9] = system: localization of nitrosamines (NNN, NNK) in tissues; assay: nitrosamine delocalization / blocking, general statements; conditions: in vivo
[10] = system: radioactivity ([14C]NNN) in bronchial epithelium; assay: cyclohexanol vapor inhalation, [14C]NNN autoradiography (Examples 2 and 3); type: in vivo, C57BL/6J mouse; conditions: vapor 5 min
Procedure: The mouse was kept in the closed beaker for about five minutes as the bottom of the beaker was maintained at 50° C. in a water bath. […] Handbook of Chemistry and Physics (1979), at D-203 to D-217.
One hour later, the mouse was anesthetized lightly by ether and frozen by immersion in dry ice/hexane. […] Control experiments were conducted for comparison purposes and radioactivity was detected in the respiratory epithelium in the controls.
Example 2 was duplicated, except that the mouse was kept in the closed beaker for five minutes as the bottom of the beaker was maintained at 26° C. in a water bath. […] After injection as in Example 2, the mouse was processed in the same manner as in Example 2.

[11] = transfer of cyclohexanol to cigarette smoke, gas chromatography (Example 7)
Procedure: This work was performed to determine the amount of cyclohexanol transferred to smoke from cigarettes loaded with the chemical. Duplicate runs were carried out. In each run, smoke from twenty cigarettes, twelve puffs/cigarette, was collected. Cyclohexanol was analyzed in both the particulate (filter extract) and non-particulate phases of cigarette smoke by gas chromatography. A standard curve was made and analyzed simultaneously with the samples.
The total volume of smoke from 20 cigarettes=12×33.3×20=7992 ml [formula]
These calculations are based on the following information:
Using conventional manufacturing practices, 1,000 pounds of dressed rag tobacco yields 510,000 finished cigarettes. These ratios and yields are to be strictly monitored. The ratio of top dressing to rag tobacco is based on the published TLV's for the active ingredient of this dressing--cyclohexanol.

[12] = system: human; conditions: cited from earlier work

O=NN1CCCC1c1cccnc1 (stereo not drawn) [NNN, N'-Nitrosonoronicotine]
hydroxylation at the a-carbon of NNN adjacent to the pyridine ring [1]: preferentially catalyzes hydroxylation | number of sites of tumor formation [2]: five

OC1CCCCC1 [Cyclohexanol]
smoked concentration as % of TLV ([3]; 620 micrograms per cigarette): 99 % of cyclohexanol TLV | smoked concentration as % of TLV ([3]; 8750 micrograms loaded per cigarette): 1389 % of TLV | Boiling Point [4]: 161 °C | slight degenerative changes, air level [5]: about 600 mg per cubic meter | instantaneous concentration to a smoker as % of TLV [6]: about 75 % of the TLV value | body burden from a pack of cigarettes ([7]; all cyclohexanol in smoke absorbed, 20 cigarettes): 1.0 mg | daily burden ([7]; one pack a day smoker): 0.014 mg/kg | mouse iv toxic dose versus human exposure ([7]; one pack a day smoker): 20,000 times | difference in exposure versus effect level in animals ([7]; rats, pharmacological changes (enzyme or neurotoxicity)): ~20,000 fold | acute intravenous toxic dose [8]: 270 mg/kg | effectiveness against NNN or NNK [9]: effective against NNN | efficacy in the laboratory [9]: highly effective in the laboratory | radioactivity in bronchial epithelium ([10]; 26° C., 0.001% in air): No radioactivity was detected | radioactivity in bronchial epithelium ([10]; 50° C., 0.01% in air): No radioactivity was detected | % of TLV ([11]; Example 7 summary): 59.5% | Percent of TLV ([11]; Fully Smoked Cigarette): 59.5% | Percent TLV ([11]; Instant ("Puff") Exposure): 4.9% | TLV ([12]; Example 7 summary): 200 | TLV ([12]; Table of smokestream concentrations): 200.0 µg/L | TLV ([12]; Table of smokestream concentrations, listed as cyclohexanol): 200 µg/L | OSHA safe air level ([12]; eight continuous hours): two hundred | Toxicity: OSHA time weighted average limit ([12]; eight hour work day and forty hour work week): 200 mg/m^3
